Reference: PMC6213923, “Meroterpenoids and Isocoumarinoids from a Myrothecium Fungus Associated with Apocynum venetum” (Marine Drugs, 2018)

Biological target: human-sourced α-glucosidase recombinant expressed in Saccharomyces cerevisiae
Assay: α-glucosidase inhibitory assay (pNPG substrate)
Assay type: biochemical
Settings: PBS pH 6.8, 37 °C, absorbance at 405 nm, preliminarily investigated, read-out: α-glucosidase inhibition IC50
Experimental: The α-glucosidase inhibitory activity of 1–13 was preliminarily investigated.
The sample was dissolved in sodium phosphate buffer (PBS, pH 6.8) at three concentrations. 10 μL of the sample solution, 20 μL of 2.5 mM pNPG solution (in phosphate buffer) and 20 μL of PBS were mixed in a 96-well microplate and incubated at 37 °C for 5 min. A volume of 10 μL of α-glucosidase diluted to 0.2 U/mL by 0.01 M PBS was then added to each well. After incubating at 37 °C for 15 min, the absorbance at 405 nm was recorded by a Spectra max 190 micro plate reader (Molecular Devices Inc., San Jose, CA, USA). The blank was prepared by adding phosphate buffer instead of the α-glucosidase and the positive control was acarbose. […] The inhibition (%) was calculated as [1 − (ODdrug/ODblank)] × 100%.

Row | SMILES | IC50
1 | CC(=O)O[C@@H]1C[C@@]2(C)[C@@H](CC[C@@H](C)[C@]23Cc2c(cc(CO)c(C=O)c2O)O3)C(C)(C)[C@H]1O [Compound 1, Myrothecisin A] | 500 µM
2 | CC(=O)O[C@H]1[C@H](O)C[C@@]2(C)[C@@H](CC[C@@H](C)[C@]23Cc2c(cc(CO)c(C=O)c2O)O3)C1(C)C [Compound 2, Myrothecisin B] | 660 µM
3 | CC(=O)O[C@H]1CC=C2[C@@H](CC[C@@H](C)[C@@]2(C)Cc2c(O)cc(CO)c(C=O)c2O)C1(C)C [Compound 3, Myrothecisin C] | 58 µM
4 | C[C@@H]1CC[C@@H]2C(=CC[C@H](O)C2(C)C)[C@]1(C)Cc1c(O)cc(CO)c(C=O)c1O [Compound 4, Myrothecisin D] | 200 µM

Other lines, results leading:

Row | IC50 | SMILES
5 | 320 µM | COc1cc(O)c2c(=O)occ(C(O)CO)c2c1 (stereo not shown) [Compound 5, Myrothelactone A]
6 | 36 µM | COc1cc(O)c2c(=O)occ(C(=O)CO)c2c1 [Compound 7, Myrothelactone C]
7 | 26 µM | COc1cc(O)c2c(=O)oc(CO)c(CO)c2c1 [Compound 9, tubakialactone B]
8 | 370 µM | Cc1c(CO)oc(=O)c2c(O)cc(O)cc12 [Compound 10, acremonone G]
9 | 470 µM | C[C@H]1O[C@H](O[C@H]2[C@H](O)[C@@H](O)[C@@H](O[C@H]3[C@H](O)[C@@H](O)C(O)O[C@@H]3CO)O[C@@H]2CO)[C@H](O)[C@@H](O)[C@@H]1N[C@H]1C=C(CO)[C@@H](O)[C@H](O)[C@H]1O (stereo partly shown) [acarbose, reference compound]

Tested on: not given
Assay: not given
Settings: not given

Row | melting point | SMILES
10 | 160 to 161 °C | COc1cc(O)c2c(=O)occ(C(=O)CO)c2c1 [Compound 7, Myrothelactone C]
